Test results reported in patent US12390508B2, “Brain natriuretic peptide engrafted antibodies” (Boehringer Ingelheim International GmbH, priority 2018, dated 2025).
Positions of bridges follow the written chain, without caps; N, C: chain ends. Residues, ends and D or L forms follow the SMILES beside them.

Key:
[1] = biological target: T1, neutral endopeptidase (NEP) (Homo sapiens, UniProt P08473); experiment: Sensitivity towards proteolytic degradation by neutral endopeptidase (NEP); type: in vitro ADME; conditions: 4 hours incubation with 0.6 μg/ml NEP at 37° C., then activity on the rat receptor cell line
T1 construct: purchased R&D Systems 1182-ZNC
T1 sequence (P08473 52-750 limits assumed): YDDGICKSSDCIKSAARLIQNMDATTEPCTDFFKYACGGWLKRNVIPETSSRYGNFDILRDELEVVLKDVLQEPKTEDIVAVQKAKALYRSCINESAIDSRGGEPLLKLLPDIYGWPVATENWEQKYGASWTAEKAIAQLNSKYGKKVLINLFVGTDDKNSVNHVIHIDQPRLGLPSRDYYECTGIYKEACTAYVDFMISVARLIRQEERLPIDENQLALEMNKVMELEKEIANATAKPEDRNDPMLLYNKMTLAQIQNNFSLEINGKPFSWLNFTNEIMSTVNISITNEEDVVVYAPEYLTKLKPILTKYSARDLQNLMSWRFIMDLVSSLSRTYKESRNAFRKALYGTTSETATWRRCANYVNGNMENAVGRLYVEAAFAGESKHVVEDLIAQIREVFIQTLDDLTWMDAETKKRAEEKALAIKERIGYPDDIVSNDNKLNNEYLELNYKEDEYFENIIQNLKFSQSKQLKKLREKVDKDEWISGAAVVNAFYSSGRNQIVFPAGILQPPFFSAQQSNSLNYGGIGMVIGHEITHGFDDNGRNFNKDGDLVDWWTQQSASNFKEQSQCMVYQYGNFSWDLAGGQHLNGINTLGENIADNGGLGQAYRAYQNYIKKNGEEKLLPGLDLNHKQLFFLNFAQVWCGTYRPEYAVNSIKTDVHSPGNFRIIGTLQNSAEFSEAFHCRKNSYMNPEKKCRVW

[2] = biological target: T2, insulin degrading enzyme (IDE) (Rattus norvegicus, UniProt P35559); experiment: Sensitivity towards proteolytic degradation by insulin degrading enzyme (IDE); conditions: 4 hours incubation with 0.6 μg/ml IDE at 37° C., then activity on the rat receptor cell line
T2 sequence (P35559 42-1019 limits assumed): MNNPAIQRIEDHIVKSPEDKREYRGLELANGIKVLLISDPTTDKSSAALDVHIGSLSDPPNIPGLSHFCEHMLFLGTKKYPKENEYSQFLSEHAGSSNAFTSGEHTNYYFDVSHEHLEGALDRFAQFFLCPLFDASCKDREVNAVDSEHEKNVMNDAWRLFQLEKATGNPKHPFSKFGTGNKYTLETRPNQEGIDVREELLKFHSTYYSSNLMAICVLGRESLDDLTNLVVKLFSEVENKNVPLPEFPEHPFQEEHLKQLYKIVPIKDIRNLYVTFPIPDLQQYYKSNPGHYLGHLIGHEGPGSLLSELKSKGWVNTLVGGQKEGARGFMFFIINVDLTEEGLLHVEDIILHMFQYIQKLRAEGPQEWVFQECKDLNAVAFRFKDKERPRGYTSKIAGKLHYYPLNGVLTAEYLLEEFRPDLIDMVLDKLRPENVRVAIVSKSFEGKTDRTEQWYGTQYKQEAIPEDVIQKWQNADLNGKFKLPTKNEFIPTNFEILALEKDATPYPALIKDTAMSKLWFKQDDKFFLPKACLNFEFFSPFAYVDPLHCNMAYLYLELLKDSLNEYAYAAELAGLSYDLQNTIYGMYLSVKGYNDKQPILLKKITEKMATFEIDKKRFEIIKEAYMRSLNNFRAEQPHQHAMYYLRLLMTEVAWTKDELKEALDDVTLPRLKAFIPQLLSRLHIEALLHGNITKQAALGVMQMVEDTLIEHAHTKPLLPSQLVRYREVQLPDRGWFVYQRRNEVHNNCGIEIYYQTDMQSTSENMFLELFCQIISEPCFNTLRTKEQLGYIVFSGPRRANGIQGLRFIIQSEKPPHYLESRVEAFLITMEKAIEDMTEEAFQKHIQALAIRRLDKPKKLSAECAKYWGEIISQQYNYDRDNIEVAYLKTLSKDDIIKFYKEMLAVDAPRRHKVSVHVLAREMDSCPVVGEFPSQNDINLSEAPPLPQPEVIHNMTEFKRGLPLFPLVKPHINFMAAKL

sensitivity towards proteolytic degradation by NEP [1]: high sensitivity
sensitivity towards proteolytic degradation by IDE [2]: high sensitivity
SMILES: CC[C@H](C)[C@@H]1NC(=O)[C@H](CCCNC(=N)N)NC(=O)[C@H](CC(=O)O)NC(=O)[C@H]([C@@H](C)CC)NC(=O)[C@H](CCCCN)NC(=O)[C@H](CCC(N)=O)NC(=O)CNC(=O)[C@H](Cc2ccccc2)NC(=O)[C@@H](NC(=O)[C@H](CO)NC(=O)[C@H](CO)NC(=O)[C@H](CO)NC(=O)[C@H](Cc2c[nH]cn2)NC(=O)[C@H](C)NC(=O)[C@H](CCSC)NC(=O)[C@H](CCCCN)NC(=O)[C@H](CO)NC(=O)[C@@H](N)CC(N)=O)CSSC[C@@H](C(=O)N[C@@H](CC(=O)O)C(=O)NCC(=O)N[C@@H](CC(C)C)C(=O)N[C@@H](CCCNC(=N)N)C(=O)N[C@@H](CC(C)C)C(=O)N[C@@H](Cc2ccccc2)C(=O)O)NC(=O)CNC(=O)[C@H](CC(C)C)NC(=O)[C@H](CCCNC(=N)N)NC(=O)[C@H](CO)NC(=O)[C@H](C(C)C)NC(=O)[C@H](C)NC(=O)CNC1=O [BNP, reference compound] (H-NSKMAHSSSCFGQKIDRIGAVSRLGCDGLRLF-OH; disulfide 10-26; N-terminus and C-terminus assumed)
